The results in this text go back to patent publication US4783482A, “Bis(thiocyanato)palladium(II)complexes” (Engelhard Corporation, priority 1985, dated 1988).

For this test, the system named is S180 ascites. Kind of test: Anti-tumor evaluation: % increase in life span (% ILS) and survivors, S180 ascites in female CFW Swiss mice. The class given is in vivo. Here is the method: The above-prepared compounds were evaluated against S180 ascites in female CFW Swiss mice. The mice were weighed (average weight: 20 g), placed into cages (four or six mice to a cage), and on day zero the mice were inoculated with 0.2 ml of a freshly prepared saline suspension (0.15 M NaCl) containing 1×10^7 tumor cells/ml or a total of 2×10^6 cells This inoculum was freshly prepared using "transfer" mice, which had been injected with tumor cells the previous week; it was obtained via the following steps: (1) the removal of cells from the peritoneal cavity of the sacrificed transfer mouse, (2) alternate centrifugation and washing operations (2-3 times with cold saline) to remove blood and other components, and (3) dilution of the volume of the packed cell with saline (1:3). A final centrifugation was carried out at 1000 RPM over a two minute period. A cell count was made on a 2,000-fold dilution of this 1:3 suspension by means of a Coulter Counter. A final dilution to 1×10^7 cells/ml was made, based on the average count.
On day 1, solutions of the test compounds were prepared, and each mouse in a set of four or six were injected with the same test compound at the same dosage. The doses were based on the average weight of the animals (cage weight). Also, beginning on day 1, two controls were employed containing six mice per control:
(1) Normal Control: This consisted solely of the carrier or diluent used in combination with the test compound; and
(2) Positive Control: This consisted solely of known anti-tumor agent cis-[Pt(NH3)2 Cl2 ] in saline (8 mg/kg) to test the response of the biological system.
The effectiveness of a test compound was measured in terms of the % increase in life span (%ILS) of the test mice relative to the Normal Control (Calculated from the day of tumor inoculation, i.e., day zero). To standardize the test data and permit intercomparisons, the day of evaluation was arbitrarily taken as that day corresponding to twice the mean life span (or average day of death) of the control. This established a practical upper limit of 100% on the %ILS attainable. For calculation purposes, the survivors of the day of evaluation were considered to have died on that day. The %ILS was calculated as follows: [formula] ILS values in excess of 50% were interpreted as antitumor activity, whereas values in excess of 75% indicated excellent antitumor activity.
All test compounds were evaluated in water containing 0.1-0.3% of the suspending agent "Klucel" (hydroxypropylcellulose).
Tables 3 and 4, infra, show the criticality of the ring size and the thiocyanato substituents, respectively. The protocols for determining effectiveness for the products in Tables 3 and 4 were identical to the procedure employed for determining the anti-tumor effectiveness of the products in Table 2.

Where [1] appears, read: dose 10 mg/kg, on day of evaluation.
[2] abbreviates: dose 20 mg/kg, on day of evaluation.
Setting [3] is: dose 40 mg/kg, on day of evaluation.
Setting [4] is: dose 80 mg/kg, on day of evaluation.
[5] abbreviates: dose 160 mg/kg, on day of evaluation.
The mark [6] stands for this setting: dose 320 mg/kg, on day of evaluation.
The mark [7] stands for this setting: dose 5 mg/kg, on day of evaluation (twice mean life span of control).

On to `N#C[S][Pd-2]1([S]C#N)[NH2+]CCC[NH2+]1` [Comp. Ex. A, bis(thiocyanato)-1,3-diaminopropanepalladium(II)], for which the “% ILS” value reads like this: (dose 10 mg/kg) 1%; (dose 20 mg/kg) 9%; (dose 40 mg/kg) -4%; (dose 80 mg/kg) -70%; (dose 160 mg/kg) -88%; (dose 320 mg/kg) -93%. For the same compound, the Survivors is, setting by setting: under setting [1], 0 of 4; under setting [2], 0 of 4; under setting [3], 0 of 4; under setting [4], 0 of 4; under setting [5], 0 of 4; under setting [6], 0 of 4.

Regarding `N#C[S][Pd][S]C#N.NCCCCN` [Comp. Ex. B, bis(thiocyanato)-1,4-diaminobutanepalladium(II)], the “% ILS” value runs as follows: (dose 10 mg/kg) -1%; (dose 20 mg/kg) 15%; (dose 40 mg/kg) -4%; (dose 80 mg/kg) -21%; (dose 160 mg/kg) 47%; (dose 320 mg/kg) 2%. Also, the Survivors is, setting by setting: under setting [1], 0 of 6; under setting [2], 0 of 6; under setting [3], 0 of 6; under setting [4], 0 of 5; under setting [5], 0 of 5; under setting [6], 0 of 5.

As for `N#C[S][Pd]1([S]C#N)[NH]CC(O)C[NH]1` [Comp. Ex. C, bis(thiocyanato)-1,3-diamino-2-propanolpalladium(II)], the “% ILS” value (dose 10 mg/kg) is on record as -4%; the “% ILS” value (dose 20 mg/kg) is -7%; the “% ILS” value (dose 40 mg/kg) is reported as -8%; the “% ILS” value (dose 80 mg/kg) is recorded as -76%; the “% ILS” value (dose 160 mg/kg) is reported as -87%; the “% ILS” value (dose 320 mg/kg) is listed as -92%. Moreover, the Survivors under setting [1] is 0 of 6; the Survivors under setting [2] is 0 of 6; the Survivors under setting [3] was 0 of 6; the Survivors under setting [4] is given as 0 of 6; the Survivors under setting [5] was 0 of 6; the Survivors under setting [6] is reported as 0 of 6.

Consider `N#C[S][Pd-2]1([S]C#N)[NH2+]c2cccc3cccc(c23)[NH2+]1` [Comp. Ex. D, bis(thiocyanato)-1,8-diaminonaphthalenepalladium(II)], for which the “% ILS” value is -11% (dose 10 mg/kg); -9% (dose 20 mg/kg); -11% (dose 40 mg/kg); -19% (dose 80 mg/kg); -28% (dose 160 mg/kg); 48% (dose 320 mg/kg). Moreover, the Survivors is, setting by setting: under setting [1], 0 of 6; under setting [2], 0 of 6; under setting [3], 0 of 6; under setting [4], 0 of 6; under setting [5], 0 of 6; under setting [6], 1 of 6.

For `N#C[S-].N#C[S-].NCC(=O)CN.[Pd+2]` [Comp. Ex. E, Bis(Thiocyanato)diaminoacetonepalladium(II)], the “% ILS” value reads like this: (dose 5 mg/kg) 3%; (dose 10 mg/kg) 8%; (dose 20 mg/kg) 13%; (dose 40 mg/kg) 3%; (dose 80 mg/kg) 1%; (dose 160 mg/kg) 13%. Further, the Survivors under setting [7] was 0 of 4; the Survivors under setting [1] is given as 0 of 4; the Survivors under setting [2] is on record as 0 of 4; the Survivors under setting [3] is on record as 0 of 4; the Survivors under setting [4] is given as 0 of 4; the Survivors under setting [5] was 0 of 4.

Take `NCCN.O=N[O-].O=N[O-].[Pd+2]` [Comp. Ex. F, Dinitro(Ethylenediamine)palladium(II)]: the “% ILS” value by setting is: (dose 10 mg/kg) 2%; (dose 20 mg/kg) 6%; (dose 40 mg/kg) -15%; (dose 80 mg/kg) -59%; (dose 160 mg/kg) -87%. The Survivors reads like this: under setting [1], 0 of 4; under setting [2], 0 of 4; under setting [3], 0 of 4; under setting [4], 0 of 4; under setting [5], 0 of 4.

For the compound `NCCCN.O=[N+]([O-])[Pd][N+](=O)[O-]` [Comp. Ex. G, dinitro(1,3-diaminopropane)palladium(II)], the “% ILS” value runs as follows: (dose 10 mg/kg) 13%; (dose 20 mg/kg) 16%; (dose 40 mg/kg) 27%; (dose 80 mg/kg) 0%; (dose 160 mg/kg) -89%. Also, the Survivors under setting [1] is listed as 0 of 4; the Survivors under setting [2] is recorded as 0 of 4; the Survivors under setting [3] is reported as 0 of 4; the Survivors under setting [4] is listed as 1 of 4; the Survivors under setting [5] is reported as 0 of 4.

For `NC1CCCCC1N.O=[N+]([O-])[Pd][N+](=O)[O-]` (stereo not shown) [Comp. Ex. H, Dinitro(1,2-diaminocyclohexane)palladium(II)], the “% ILS” value runs as follows: (dose 10 mg/kg) 12%; (dose 20 mg/kg) 3%; (dose 40 mg/kg) -3%; (dose 80 mg/kg) 21%. Further, the Survivors by setting is: under setting [1], 0 of 4; under setting [2], 0 of 4; under setting [3], 0 of 4; under setting [4], 0 of 4.

In the case of `Nc1ccccc1N.O=N[O-].O=N[O-].[Pd+2]` [Comp. Ex. I, dinitro(o-phenylenediamine)palladium(II)], the “% ILS” value (dose 10 mg/kg) is given as 21%, the “% ILS” value (dose 20 mg/kg) is 3%, the “% ILS” value (dose 40 mg/kg) was 29% and the “% ILS” value (dose 80 mg/kg) amounted to 19%. In addition, the Survivors reads like this: under setting [1], 0 of 4; under setting [2], 0 of 4; under setting [3], 1 of 4; under setting [4], 0 of 4.

In the case of `NCCN.[I-].[I-].[Pd+2]` [Comp. Ex. L, Diiodo(ethylenediamine)palladium(II)], the “% ILS” value (dose 5 mg/kg) was -17%; the “% ILS” value (dose 10 mg/kg) is -13%; the “% ILS” value (dose 20 mg/kg) is given as -9%; the “% ILS” value (dose 40 mg/kg) is given as -11%; the “% ILS” value (dose 80 mg/kg) was 24%; the “% ILS” value (dose 160 mg/kg) turned out to be 32%. The Survivors is listed as 0 of 4 under setting [7]; 0 of 4 under setting [1]; 0 of 4 under setting [2]; 0 of 4 under setting [3]; 0 of 4 under setting [4]; 1 of 4 under setting [5].

As for `[I][Pd]1([I])[NH]C2CCCCC2[NH]1` (stereo not shown) [Comp. Ex. M, Diiodo(1,2-Diaminocyclohexane)palladium(II)], the “% ILS” value reads like this: (dose 5 mg/kg) -4%; (dose 10 mg/kg) -9%; (dose 20 mg/kg) -20%; (dose 40 mg/kg) -15%; (dose 80 mg/kg) -16%; (dose 160 mg/kg) 77%. Further, the Survivors is on record as 0 of 4 under setting [7]; 0 of 4 under setting [1]; 0 of 4 under setting [2]; 0 of 4 under setting [3]; 0 of 4 under setting [4]; 1 of 4 under setting [5].

Take `N#C[S-].N#C[S-].NCCN.[Pd+2]` [Ex. 1, Bis(Thiocyanato)ethylenediaminepalladium(II)]: the “Best % ILS” value (best over doses) amounted to 79%. Besides, the “% ILS” value is listed as 2% (dose 10 mg/kg); 18% (dose 20 mg/kg); 79% (dose 40 mg/kg); 2% (dose 80 mg/kg); -87% (dose 160 mg/kg); -87% (dose 320 mg/kg). The Survivors was 0 of 4 under setting [1]; 0 of 4 under setting [2]; 0 of 4 under setting [3]; 1 of 4 under setting [4]; 0 of 4 under setting [5]; 0 of 4 under setting [6].
